The test system of the experiment is mouse red blood cells. Briefly: In vitro red blood cell-based assay (oxygen equilibrium curve, Softron analyzer). Particulars: final effector concentration 2 mM, mean ± SD; for P50/P50C: P50C = control with 1% DMSO; for P50: 1% DMSO; for P50 / ∆P50: mouse red blood cells; for ∆P50: ∆P50 = P50 − P50C. The source says: In the first stage of our research, three series of analogues were designed and synthesized to explore refinement of the hydrophobic parts of 19f, 19m, 24a and 24b; hinge areas of 18g, 19b and 19y; and tail regions of 15c, 15d and 16c, respectively. We used the Softron Analyzer to evaluate the effect of these compounds on the half-blood oxygen saturation(P50) value of red blood cells. The most promising phenoxyaromatic acid compound, efaproxiral, was used as a positive control. […] The results reminded us that the modification of the hydrophobic part or linker extension is beneficial to improve an allosteric effect.
Eight-week-old female C57BL6J mice were purchased from Beijing Vital River Laboratory Animal Technology Co., Ltd. A total of 540 μL mouse blood was added into the 1.5 mL centrifuge tube, followed by adding 60 μL 3.8% sodium citrate. The mixture was then centrifuged at 1500 rpm for 10 min, the supernatant was carefully aspirated, and the cells were washed three times with PBS solution. After mixing packed red blood cells with Alsever’s solution in a ratio of 1:1, a blood gas analyzer (RADIOMETER ABL 90) was used to analyze the red blood cell density and hemoglobin concentration.
All of the compounds were prepared as 200 mM stock solutions in DMSO. Oxygen equilibrium measurements were performed with the Softron analyzer (Softron Medical Products, Beijing, China) using mouse red blood cells. The samples were prepared by adding 3 mg hemoglobin equivalent of red blood cells into 3.92 mL loading buffer (100 mM NaCl, 50 mM bis-Tris at pH 7.2 and 25 °C), followed by 20 μL 10% Dimethicone as a defoamer and 20 μL 20% BSA. Afterwards, 40 μL stock solution was added, and the mixture was loaded to the sample cell and fully deoxygenated by blowing into nitrogen at 37 °C for 15 min. Then, the oxygen equilibrium curve was recorded by blowing into oxygen.

Values joined by “and” are separate entries in the source; they are usually repeats but may differ in a detail not shown here. Identical values can stand only once.

Turning to `CC(C)(Oc1ccc(CC(=O)Nc2ccc3c(c2)OCO3)cc1)C(=O)O` [24c, 2-(4-(2-(benzo[d][1,3]dioxol-5-ylamino)-2-oxoethyl)phenoxy)-2-methylpropanoic acid], the P50/P50C is listed as 1.58 ± 0.01, the P50 turned out to be 69.62 ± 12.16 mmHg and the “∆P50” value came out at 25.61 ± 4.27 mmHg.
Taken in the same sequence, the figures for `CNC(=O)Cc1ccc(OC(C)(C)C(=O)O)cc1` [24h, 2-methyl-2-(4-(2-(methylamino)-2-oxoethyl)phenoxy)propanoic acid] were 1.40 ± 0.11, 58.11 ± 1.93 mmHg and 16.27 ± 2.88 mmHg.
In the same order, the values of `CC(C)(Oc1ccc(CC(=O)Nc2ccc(C#N)cc2)cc1)C(=O)O` [19q, 2-(4-(2-((4-cyanophenyl)amino)-2-oxoethyl)phenoxy)-2-methylpropanoic acid] are 1.32 ± 0.30, 59.60 ± 13.58 mmHg and 14.36 ± 13.58 mmHg.
Consider `CC(C)(Oc1ccc(CC(=O)Nc2ccc(-c3ccccc3)cc2)cc1)C(=O)O` [19o, 2-(4-(2-([1,1′-biphenyl]-4-ylamino)-2-oxoethyl)phenoxy)-2-methylpropanoic acid], for which the P50/P50C is reported as 1.81 ± 0.04, the P50 amounted to 74.56 ± 1.75 mmHg and the “∆P50” value is given as 33.37 mmHg. Also, where the note is “listed as 190”, the “∆P50” value amounted to 33.37 ± 1.75 mmHg.
On to `Cc1cc(C)cc(NCCCc2ccc(OC(C)(C)C(=O)O)cc2)c1` [18a, 2-(4-(3-((3,5-dimethylphenyl)amino)propyl)phenoxy)-2-methylpropanoic acid], for which the P50/P50C is given as 1.41 ± 0.03, the P50 is 77.19 ± 5.93 mmHg and the “∆P50” value turned out to be 22.54 ± 2.74 mmHg.
In the same order, the values of `CC(C)(Oc1ccc(/C=C/C(=O)Nc2cc(Cl)cc(Br)c2)cc1)C(=O)O` [19w, (E)-2-(4-(3-((3-bromo-5-chlorophenyl)amino)-3-oxoprop-1-en-1-yl)phenoxy)-2-methylpropanoic acid] are 1.50 ± 0.08, 56.76 ± 2.93 mmHg and 18.85 ± 2.93 mmHg.
Regarding `CSc1cccc(NC(=O)Cc2ccc(OC(C)(C)C(=O)O)cc2)c1` [19m-1, 2-methyl-2-(4-(2-((3-(methylthio)phenyl)amino)-2-oxoethyl)phenoxy)propanoic acid], the P50/P50C was found to be 1.81 ± 0.02; the P50 came out at 81.67 ± 0.95 mmHg; the “∆P50” value was 36.43 mmHg and 36.43 ± 0.95 mmHg.
On to “(E)-2-(4-(3-((4-bromophenyl)amino)-3-oxoprop-1-en-1-yl)phenoxy)-2-methylpropanoic acid [19u]”, for which the P50/P50C came to 1.67 ± 0.09, the P50 is recorded as 63.15 ± 3.48 mmHg, the “K (Hill coefficient of the oxygen dissociation curve at 50% saturation)” value is recorded as 1.96 ± 0.17 and the “∆P50” value came out at 25.24 ± 3.48 mmHg.
Take `CC(C)(Oc1ccc(CC(=O)N(Cc2ccccc2)Cc2ccccc2)cc1)C(=O)O` [24f, 2-(4-(2-(dibenzylamino)-2-oxoethyl)phenoxy)-2-methylpropanoic acid]: the P50/P50C is on record as 1.23 ± 0.12, the P50 is reported as 54.51 ± 14.91 mmHg and the “∆P50” value was determined as 10.51 ± 7.02 mmHg.
In the case of “2-(4-(1-((3,5-dimethylphenyl)carbamoyl)cyclopropyl)phenoxy)-2-methylpropanoic acid [19e]”, the P50/P50C turned out to be 1.10 ± 0.04, the P50 was 46.24 ± 7.09 mmHg, the “K (Hill coefficient of the oxygen dissociation curve at 50% saturation)” value turned out to be 2.40 ± 0.12 and the “∆P50” value is reported as 4.41 ± 2.27 mmHg.
`CCN(CC)c1ccc(NC(=O)Cc2ccc(OC(C)(C)C(=O)O)cc2)cc1` [19r, 2-(4-(2-((4-(diethylamino)phenyl)amino)-2-oxoethyl)phenoxy)-2-methylpropanoic acid]: the P50/P50C came to 1.57 ± 0.02, the P50 amounted to 65.81 ± 6.64 mmHg and the “∆P50” value came to 23.97 ± 1.82 mmHg.
On to `CSc1ccc(NC(=O)Cc2ccc(OC(C)(C)C(=O)O)cc2)cc1` [19m, 2-methyl-2-(4-(2-((4-(methylthio)phenyl)amino)-2-oxoethyl)phenoxy)propanoic acid], for which the P50/P50C is on record as 1.80 ± 0.02; the P50 is recorded as 74.24 ± 0.69 mmHg; the “∆P50” value was 33.05 mmHg and 33.05 ± 0.69 mmHg.
As to `CC(C)(Oc1ccc(CC(=O)Nc2cc(Cl)cc(Br)c2)cc1)C(=O)O` [19j, 2-(4-(2-((3-. bromo-5-chlorophenyl)amino)-2-oxoethyl)phenoxy)-2-methylpropanoic acid], the P50/P50C came out at 1.82 ± 0.02, the P50 was found to be 82.35 ± 0.80 mmHg and the “∆P50” value is reported as 37.11 ± 0.80 mmHg.
As for `CC(C)(Oc1ccc(CC(=O)Nc2cccc(-c3ccccc3)c2)cc1)C(=O)O` [19p, 2-(4-(2-([1,1′-biphenyl]-3-ylamino)-2-oxoethyl)phenoxy)-2-methylpropanoic acid], the P50/P50C is listed as 1.87 ± 0.02; the P50 was 77.10 ± 0.66 mmHg; the “∆P50” value was 35.91 mmHg and 35.91 ± 0.66 mmHg.
For “2-methyl-2-(4-(2-(naphthalen-2-ylamino)ethyl)phenoxy)propanoic acid [18f]”, the P50/P50C worked out at 1.72 ± 0.03, the P50 is on record as 79.24 ± 1.61 mmHg, the “K (Hill coefficient of the oxygen dissociation curve at 50% saturation)” value stood at 1.89 ± 0.13 and the “∆P50” value stood at 33.13 ± 1.61 mmHg.
Turning to `CC(C)(Oc1ccc(CC(=O)NC(c2ccccc2)c2ccccc2)cc1)C(=O)O` [24e, 2-(4-(2-(benzhydrylamino)-2-oxoethyl)phenoxy)-2-methylpropanoic acid], the P50/P50C is listed as 1.33 ± 0.24, the P50 stood at 59.61 ± 20.96 mmHg and the “∆P50” value is 15.61 ± 13.07 mmHg.

(Values after paper PMC9024523, “Phenoxyaromatic Acid Analogues as Novel Radiotherapy Sensitizers: Design, Synthesis and Biological Evaluation” (Molecules, 2022).)
